According to patent US20260224588A1, “BENZODIAZEPINONE-DERIVED INHIBITORS OF EGFR AND HER2” (The Research Foundation for the State University of New York, priority 2023, published 2026):

Legend:
Experiment in all cases: KINOMEscan
Type in all cases: binding
Conditions in all cases: 1 μM of compound 4; read-out: POC
STK39 = molecular target: T1, STK39 (Homo sapiens, UniProt Q9UEW8)
T1 construct: purchased Eurofins DiscoverX (KINOMEscan service)

BMPR1B = BMPR1B (Homo sapiens, UniProt O00238)
STK36 = molecular target: T2, STK36 (Homo sapiens, UniProt Q9NRP7)
T2 construct: purchased Eurofins DiscoverX (KINOMEscan service)

IRAK1 = IRAK1 (Homo sapiens, UniProt P51617)
BRK = BRK (Homo sapiens, UniProt Q13882)
ABL1-nonphosphorylated = molecular target: T3, ABL1-nonphosphorylated (Homo sapiens, UniProt P00519)
T3 construct: purchased Eurofins DiscoverX Corporation

TIE1 = molecular target: T4, TIE1 (Homo sapiens, UniProt P35590)
T4 construct: purchased Eurofins DiscoverX Corporation

PIK3CA(E542K) = PIK3CA(E542K) (Homo sapiens, UniProt P42336, E542K)
PCTK3 = molecular target: T5, PCTK3 (Homo sapiens, UniProt Q07002)
T5 construct: purchased Eurofins DiscoverX Corporation (KINOMEscan)

ASK1 = ASK1 (Homo sapiens, UniProt Q99683)
[1] = molecular target: T6, RPS6KA4(Kin.Dom.2-C-terminal) (Homo sapiens, UniProt O75676)
T6 construct: RPS6KA4(Kin.Dom.2-C-terminal); purchased Eurofins DiscoverX Corporation (KINOMEscan screening service)

TRPM6 = molecular target: T7, TRPM6 (Homo sapiens, UniProt Q9BX84)
T7 construct: purchased Eurofins DiscoverX Corporation

CSNK1G3 = CSNK1G3 (Homo sapiens, UniProt Q9Y6M4)
FAK = molecular target: T8, FAK (Homo sapiens, UniProt Q05397)
T8 construct: purchased Eurofins DiscoverX Corporation

MAPKAPK2 = MAPKAPK2 (Homo sapiens, UniProt P49137)
CSNK1G2 = CSNK1G2 (Homo sapiens, UniProt P78368)
PRKCD = PRKCD (Homo sapiens, UniProt Q05655)
MST3 = MST3 (Homo sapiens, UniProt Q9Y6E0)
WNK1 = molecular target: T9, WNK1 (Homo sapiens, UniProt Q9H4A3)
T9 construct: purchased Eurofins DiscoverX

CSF1R-autoinhibited = CSF1R-autoinhibited (Homo sapiens, UniProt P07333)
ERK8 = molecular target: T10, ERK8 (Homo sapiens, UniProt Q8TD08)
T10 construct: purchased Eurofins DiscoverX Corporation

PIP5K2C = PIP5K2C (Homo sapiens, UniProt Q8TBX8)
ULK1 = molecular target: T11, ULK1 (Homo sapiens, UniProt O75385)
T11 construct: purchased Eurofins DiscoverX

DYRK1A = DYRK1A (Homo sapiens, UniProt Q13627)
p38-delta = molecular target: T12, p38-delta (Homo sapiens, UniProt O15264)
T12 construct: purchased Eurofins DiscoverX Corporation (KINOMEscan)

PAK7 = molecular target: T13, PAK7 (Homo sapiens, UniProt Q9P286)
T13 construct: purchased Eurofins DiscoverX Corporation (KINOMEscan)

PAK3 = molecular target: T14, PAK3 (Homo sapiens, UniProt O75914)
T14 construct: purchased Eurofins DiscoverX Corporation (KINOMEscan)

BUB1 = BUB1 (Homo sapiens, UniProt O43683)
ALK = ALK (Homo sapiens, UniProt Q9UM73)
NEK7 = molecular target: T15, NEK7 (Homo sapiens, UniProt Q8TDX7)
T15 construct: purchased Eurofins DiscoverX Corporation (KINOMEscan)

PDPK1 = molecular target: T16, PDPK1 (Homo sapiens, UniProt O15530)
T16 construct: purchased Eurofins DiscoverX Corporation (KINOMEscan)

DYRK1B = DYRK1B (Homo sapiens, UniProt Q9Y463)
BIKE = BIKE (Homo sapiens, UniProt Q9NSY1)
GRK2 = molecular target: T17, GRK2 (Homo sapiens, UniProt P25098)
T17 construct: purchased Eurofins DiscoverX Corporation

TNK1 = molecular target: T18, TNK1 (Homo sapiens, UniProt Q13470)
T18 construct: purchased Eurofins DiscoverX Corporation

p38-beta = molecular target: T19, p38-beta (Homo sapiens, UniProt Q15759)
T19 construct: purchased Eurofins DiscoverX Corporation (KINOMEscan)

FES = molecular target: T20, FES (Homo sapiens, UniProt P07332)
T20 construct: purchased Eurofins DiscoverX Corporation

[2] = molecular target: T21, EGFR(L747-T751del + Sins) (Homo sapiens, UniProt P00533, DEL747-750/T751S)
T21 construct: purchased Eurofins DiscoverX (KINOMEscan service)

[3] = molecular target: T22, ABL1(F317I)-nonphosphorylated (Homo sapiens, UniProt P00519, F317I)
T22 construct: purchased Eurofins DiscoverX Corporation

ALK, sequence (Q9UM73 19-1620): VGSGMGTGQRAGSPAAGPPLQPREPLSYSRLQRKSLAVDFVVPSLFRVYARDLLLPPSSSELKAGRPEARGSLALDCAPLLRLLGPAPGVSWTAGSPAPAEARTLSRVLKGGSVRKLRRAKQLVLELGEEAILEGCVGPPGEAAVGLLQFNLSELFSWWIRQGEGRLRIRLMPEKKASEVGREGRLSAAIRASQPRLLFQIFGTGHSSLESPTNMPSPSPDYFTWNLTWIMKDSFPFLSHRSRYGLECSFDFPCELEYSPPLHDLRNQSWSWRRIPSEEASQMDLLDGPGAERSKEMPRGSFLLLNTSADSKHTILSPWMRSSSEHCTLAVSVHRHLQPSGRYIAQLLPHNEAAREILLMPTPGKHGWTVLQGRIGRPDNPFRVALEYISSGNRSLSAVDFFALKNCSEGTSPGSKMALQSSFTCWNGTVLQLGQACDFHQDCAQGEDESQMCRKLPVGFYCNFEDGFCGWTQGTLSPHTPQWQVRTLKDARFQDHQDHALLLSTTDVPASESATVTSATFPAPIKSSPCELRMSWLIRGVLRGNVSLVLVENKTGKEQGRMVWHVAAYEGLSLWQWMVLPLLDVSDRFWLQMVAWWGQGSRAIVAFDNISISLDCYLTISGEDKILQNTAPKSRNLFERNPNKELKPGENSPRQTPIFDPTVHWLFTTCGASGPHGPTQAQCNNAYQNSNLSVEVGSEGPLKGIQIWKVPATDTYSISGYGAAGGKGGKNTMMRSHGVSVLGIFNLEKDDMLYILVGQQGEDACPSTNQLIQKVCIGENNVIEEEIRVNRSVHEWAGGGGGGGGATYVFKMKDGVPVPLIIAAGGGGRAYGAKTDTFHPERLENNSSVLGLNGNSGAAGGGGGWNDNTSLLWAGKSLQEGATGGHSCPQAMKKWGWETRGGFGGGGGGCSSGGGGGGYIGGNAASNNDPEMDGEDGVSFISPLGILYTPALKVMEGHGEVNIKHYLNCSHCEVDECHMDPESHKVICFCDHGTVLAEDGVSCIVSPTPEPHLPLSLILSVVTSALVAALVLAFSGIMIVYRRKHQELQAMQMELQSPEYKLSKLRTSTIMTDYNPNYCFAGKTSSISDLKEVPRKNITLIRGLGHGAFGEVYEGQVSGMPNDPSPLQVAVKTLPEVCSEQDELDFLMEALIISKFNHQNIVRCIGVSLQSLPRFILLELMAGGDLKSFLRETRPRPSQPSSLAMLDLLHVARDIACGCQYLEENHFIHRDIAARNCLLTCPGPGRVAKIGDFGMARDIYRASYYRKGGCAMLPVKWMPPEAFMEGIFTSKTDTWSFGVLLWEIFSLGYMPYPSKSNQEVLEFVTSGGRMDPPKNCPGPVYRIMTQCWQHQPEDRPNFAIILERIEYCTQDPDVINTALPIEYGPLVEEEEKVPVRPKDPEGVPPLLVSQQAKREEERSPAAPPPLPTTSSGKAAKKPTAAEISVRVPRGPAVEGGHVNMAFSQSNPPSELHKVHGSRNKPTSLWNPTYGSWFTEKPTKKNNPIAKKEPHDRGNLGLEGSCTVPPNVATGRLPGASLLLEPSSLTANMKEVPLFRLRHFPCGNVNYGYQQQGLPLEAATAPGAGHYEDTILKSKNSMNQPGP
T18 sequence (Q13470 whole entry): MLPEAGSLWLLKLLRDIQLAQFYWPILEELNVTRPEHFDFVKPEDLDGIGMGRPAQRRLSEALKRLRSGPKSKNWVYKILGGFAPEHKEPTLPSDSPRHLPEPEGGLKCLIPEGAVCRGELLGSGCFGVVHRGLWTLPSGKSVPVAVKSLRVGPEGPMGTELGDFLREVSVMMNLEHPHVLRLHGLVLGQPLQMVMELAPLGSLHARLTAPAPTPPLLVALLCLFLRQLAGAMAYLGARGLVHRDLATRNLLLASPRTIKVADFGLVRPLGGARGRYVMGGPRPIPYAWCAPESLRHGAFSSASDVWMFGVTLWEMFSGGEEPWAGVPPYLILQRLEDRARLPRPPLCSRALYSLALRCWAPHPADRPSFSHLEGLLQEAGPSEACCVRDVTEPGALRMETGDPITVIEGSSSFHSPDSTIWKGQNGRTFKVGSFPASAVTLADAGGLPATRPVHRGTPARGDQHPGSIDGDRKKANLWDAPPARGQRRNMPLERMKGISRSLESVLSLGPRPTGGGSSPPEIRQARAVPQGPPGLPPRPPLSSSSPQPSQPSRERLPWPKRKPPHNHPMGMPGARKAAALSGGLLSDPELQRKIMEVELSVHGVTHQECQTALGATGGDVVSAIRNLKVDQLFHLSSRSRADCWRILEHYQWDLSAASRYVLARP
T19 sequence (Q15759 whole entry): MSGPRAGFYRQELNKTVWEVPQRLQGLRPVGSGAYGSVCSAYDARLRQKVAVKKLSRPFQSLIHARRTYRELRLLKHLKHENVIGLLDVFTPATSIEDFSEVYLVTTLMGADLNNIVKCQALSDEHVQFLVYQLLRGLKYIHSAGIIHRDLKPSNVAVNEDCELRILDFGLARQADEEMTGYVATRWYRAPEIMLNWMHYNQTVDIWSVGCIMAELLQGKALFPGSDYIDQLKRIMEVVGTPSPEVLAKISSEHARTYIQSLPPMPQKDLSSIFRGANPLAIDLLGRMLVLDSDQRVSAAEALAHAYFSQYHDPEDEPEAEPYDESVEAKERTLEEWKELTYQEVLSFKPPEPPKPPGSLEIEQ
BUB1, sequence (O43683 whole entry): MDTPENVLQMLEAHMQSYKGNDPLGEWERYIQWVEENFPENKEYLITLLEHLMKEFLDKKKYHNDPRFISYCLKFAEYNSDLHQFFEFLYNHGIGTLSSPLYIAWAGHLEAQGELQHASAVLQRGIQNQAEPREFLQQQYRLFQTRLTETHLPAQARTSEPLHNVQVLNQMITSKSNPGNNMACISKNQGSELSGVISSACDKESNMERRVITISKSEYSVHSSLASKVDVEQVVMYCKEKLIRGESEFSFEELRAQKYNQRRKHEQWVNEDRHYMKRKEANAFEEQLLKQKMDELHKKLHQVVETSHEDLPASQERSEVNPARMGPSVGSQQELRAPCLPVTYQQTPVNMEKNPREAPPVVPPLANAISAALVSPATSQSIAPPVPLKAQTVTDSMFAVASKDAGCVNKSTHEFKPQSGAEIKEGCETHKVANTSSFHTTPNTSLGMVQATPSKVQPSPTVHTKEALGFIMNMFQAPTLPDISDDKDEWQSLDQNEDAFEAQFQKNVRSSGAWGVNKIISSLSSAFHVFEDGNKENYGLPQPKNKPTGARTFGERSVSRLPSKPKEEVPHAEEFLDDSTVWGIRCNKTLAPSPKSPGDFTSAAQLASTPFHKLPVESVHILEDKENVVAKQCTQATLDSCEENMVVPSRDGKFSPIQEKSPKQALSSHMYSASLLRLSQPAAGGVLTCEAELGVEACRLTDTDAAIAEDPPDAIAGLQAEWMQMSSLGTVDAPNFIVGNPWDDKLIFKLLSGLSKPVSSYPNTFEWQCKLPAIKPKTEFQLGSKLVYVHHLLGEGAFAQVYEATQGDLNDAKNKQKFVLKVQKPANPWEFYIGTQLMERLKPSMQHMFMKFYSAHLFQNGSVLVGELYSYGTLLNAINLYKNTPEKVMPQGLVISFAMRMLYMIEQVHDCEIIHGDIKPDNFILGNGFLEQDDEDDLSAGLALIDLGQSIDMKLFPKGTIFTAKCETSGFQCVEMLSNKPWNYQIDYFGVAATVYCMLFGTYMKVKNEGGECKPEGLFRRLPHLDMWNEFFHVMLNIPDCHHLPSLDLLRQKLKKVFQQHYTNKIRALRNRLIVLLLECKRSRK
T4 sequence (P35590 22-1138): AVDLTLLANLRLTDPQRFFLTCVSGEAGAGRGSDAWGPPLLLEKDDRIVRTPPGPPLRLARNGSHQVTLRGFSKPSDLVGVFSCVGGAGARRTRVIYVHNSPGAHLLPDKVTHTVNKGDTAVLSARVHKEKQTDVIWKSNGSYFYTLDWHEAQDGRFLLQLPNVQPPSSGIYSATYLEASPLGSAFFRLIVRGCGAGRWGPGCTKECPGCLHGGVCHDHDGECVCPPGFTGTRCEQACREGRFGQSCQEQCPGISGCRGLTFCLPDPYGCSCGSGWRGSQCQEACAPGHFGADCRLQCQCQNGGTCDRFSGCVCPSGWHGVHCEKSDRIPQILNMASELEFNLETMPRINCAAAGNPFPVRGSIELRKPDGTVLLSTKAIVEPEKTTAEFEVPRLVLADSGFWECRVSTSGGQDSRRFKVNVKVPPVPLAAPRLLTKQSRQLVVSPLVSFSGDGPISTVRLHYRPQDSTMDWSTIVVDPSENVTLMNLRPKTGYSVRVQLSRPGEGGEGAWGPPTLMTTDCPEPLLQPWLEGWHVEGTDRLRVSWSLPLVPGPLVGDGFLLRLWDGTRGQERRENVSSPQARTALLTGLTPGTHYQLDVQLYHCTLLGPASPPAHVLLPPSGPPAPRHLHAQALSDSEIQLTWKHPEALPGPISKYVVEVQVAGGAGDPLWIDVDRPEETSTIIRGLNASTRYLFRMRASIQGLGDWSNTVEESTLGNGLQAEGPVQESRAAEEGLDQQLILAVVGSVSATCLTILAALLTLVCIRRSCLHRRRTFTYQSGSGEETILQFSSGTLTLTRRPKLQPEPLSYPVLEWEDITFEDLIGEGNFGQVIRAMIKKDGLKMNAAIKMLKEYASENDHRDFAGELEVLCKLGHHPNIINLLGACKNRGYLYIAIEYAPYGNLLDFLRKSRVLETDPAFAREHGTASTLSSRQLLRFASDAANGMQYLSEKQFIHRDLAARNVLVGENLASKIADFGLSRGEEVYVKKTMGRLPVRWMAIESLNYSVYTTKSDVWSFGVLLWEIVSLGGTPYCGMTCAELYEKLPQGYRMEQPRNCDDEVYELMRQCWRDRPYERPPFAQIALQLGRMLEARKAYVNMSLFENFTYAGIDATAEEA
T6 sequence (O75676 411-674 limits assumed): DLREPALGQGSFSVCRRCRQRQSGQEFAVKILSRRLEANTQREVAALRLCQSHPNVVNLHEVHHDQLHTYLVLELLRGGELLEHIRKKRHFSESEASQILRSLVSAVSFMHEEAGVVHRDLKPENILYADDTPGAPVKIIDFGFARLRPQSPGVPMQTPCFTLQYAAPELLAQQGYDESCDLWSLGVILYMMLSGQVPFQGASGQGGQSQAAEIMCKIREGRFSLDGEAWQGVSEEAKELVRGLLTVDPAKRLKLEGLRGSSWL

C=CC(=O)Nc1ccc(OC)c(Nc2cc(-c3[nH]c(CC)nc3-c3cccc(NC(=O)c4cccc5c4NC(=O)c4ccccc4N5)c3)ccn2)c1 [Compound 4, N-(3-(5-(2-((5-Acrylamido-2-methoxyphenyl)amino)pyridin-4-yl)-2-ethyl-1H-imidazol-4-yl)phenyl)-11-oxo-10,11-dihydro-5H-dibenzo[b,e][1,4]diazepine-9-carboxamide]
remaining binding at 1 µM (STK39): 85% | remaining binding at 1 µM (BMPR1B): 100% | remaining binding at 1 µM (STK36): 30% | remaining binding at 1 µM (IRAK1): 85% | remaining binding at 1 µM (BRK): 96% | remaining binding at 1 µM (ABL1-nonphosphorylated): 100% | remaining binding at 1 µM (TIE1): 100% | remaining binding at 1 µM (PIK3CA(E542K)): 100% | remaining binding at 1 µM (PCTK3): 93% | remaining binding at 1 µM (ASK1): 100% | remaining binding at 1 µM [1]: 75% | remaining binding at 1 µM (TRPM6): 99% | remaining binding at 1 µM (CSNK1G3): 98% | remaining binding at 1 µM (FAK): 99% | remaining binding at 1 µM (MAPKAPK2): 100% | remaining binding at 1 µM (CSNK1G2): 91% | remaining binding at 1 µM (PRKCD): 55% | remaining binding at 1 µM (MST3): 73% | remaining binding at 1 µM (WNK1): 100% | remaining binding at 1 µM (CSF1R-autoinhibited): 69% | remaining binding at 1 µM (ERK8): 100% | remaining binding at 1 µM (PIP5K2C): 66% | remaining binding at 1 µM (ULK1): 100% | remaining binding at 1 µM (DYRK1A): 100% | remaining binding at 1 µM (p38-delta): 100% | remaining binding at 1 µM (PAK7): 77% | remaining binding at 1 µM (PAK3): 70% | remaining binding at 1 µM (BUB1): 100% | remaining binding at 1 µM (ALK): 100% | remaining binding at 1 µM (NEK7): 86% | remaining binding at 1 µM (PDPK1): 84% | remaining binding at 1 µM (DYRK1B): 88% | remaining binding at 1 µM (BIKE): 100% | remaining binding at 1 µM (GRK2): 100% | remaining binding at 1 µM (TNK1): 22% | remaining binding at 1 µM (p38-beta): 59% | remaining binding at 1 µM (FES): 28% | remaining binding at 1 µM [2]: 7.6% | remaining binding at 1 µM [3]: 40%
